According to patent US20230123334A1, “AMINO LIPID COMPOUND, PREPARATION METHOD THEREFOR, AND APPLICATION THEREOF” (SHENZHEN SHENXIN BIOTECHNOLOGY CO., LTD., priority 2020, published 2023):

Legend:
[1] = test system: HEK293 cells; assay: Preliminary screening as mRNA vectors, EGFP mRNA transfection of HEK293 cells; assay type: cell-based; conditions: HEK293 cells, 96-well plates, EGFP mRNA 50 ng per well; percentage of GFP fluorescent cells relative to total number of cells (Hoechst)
In short: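 Each well of HEK293 cells received 50 ng of EGFP mRNA. Efficiency was expressed as percent GFP-expressing cells over Hoechst-defined total cell number.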

[2] = test system: HEK293 cells; assay: Preliminary screening as DNA vectors, GFP transfection of HEK293 cells; assay type: cell-based; conditions: HEK293 cells; lipid/DOPE liposome with 75 ng plasmid DNA (psin-EGFP-IRES-Puro); number of cells expressing GFP divided by total number of nuclei (Hoechst)
In short: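 Lipid + DOPE liposomes (NaOAc, pH 5.6) complexed w/ 75 ng psin-EGFP-IRES-Puro, 30 min RT; added to 3-5×10^4 HEK293/well, 37° C. Hoechst 0.2 μg/mL at 20-24 h, imaged after further 20-24 h. Efficiency = GFP+ cells / total nuclei.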

Row | Structure (SMILES) | Absolute mRNA transfection efficiency in HEK293 cells [1] [%] | Absolute DNA transfection efficiency in HEK293 cells [2] [%]
1 | CCCCCCCCCCCCCCSc1nc(NCCN2CCOCC2)nc(SCCCCCCCCCCCCCC)n1 [Compound S14S14D2] | 0.0 | 0.0
2 | CCCCCCCCCCCCCCCCNc1nc(NCCCCCCC)nc(NCCN2CCCC2)n1 [Compound N7N16D3] | 1.3 | 2.3
3 | CCCCCCCCCCCCCNc1nc(NCCCCCCCCC)nc(NCCN(C)C)n1 [Compound N9N13D1] | 2.2 | 0.4
4 | CCCCCCCCCCCCCCCNc1nc(NCCCCCCCCC)nc(NCCCN2CCOCC2)n1 [Compound N9N15D8] | 1.4 | 0.2
5 | CCCCCCCCCCCCCCCCCCNc1nc(NCCCCCCCC)nc(NCCN2CCCC2)n1 [Compound N8N18D3] | 39.9 | 9.8
6 | CCCCCCCCCCCCCCCCNc1nc(NCCCCCCCCCCCCCCC)nc(NCC2CCN(C)CC2)n1 [Compound N15N16D10] | 0.0 | 1.5
7 | CCCCCCCCCCCCCCCCSc1nc(NCCN2CCOCC2)nc(SCCCCCCCCCCCCCC)n1 [Compound S14S16D2] | 0.0 | 0.0
8 | CCCCCCCCCCCCN(CCCCCCCCCCCC)c1nc(NCCCCCCC)nc(NCCN(CC)CC)n1 [N7^2N12D7] | 1.9 | 0.6
9 | CCCCCCCCNc1nc(NCCCCCC)nc(NCCN2CCN(C)CC2)n1 [Compound N6N8D5] | 0.0 | 0.0
10 | CCCCCCCCCCCCCCCCCCNc1nc(NCCCCCCCCCCCCCCCC)nc(NCC2CCN(C)CC2)n1 [Compound N16N18D10] | 1.8 | 3.0
11 | CCCCCCCCCCCCNc1nc(NCCCCCCCCCCC)nc(NCCCN(C)C)n1 [Compound N11N12D6] | 8.1 | 0.5
12 | CCCCCCCCCCCCCCCCNc1nc(NCC2CCN(C)CC2)nc(N(CCCCCCCCCCCC)CCCCCCCCCCCC)n1 [N16^2N12D10] | 0.0 | 1.5
13 | CCCCCCCCCCCCCCCNc1nc(NCCCCCC)nc(NCCN2CCN(C)CC2)n1 [Compound N6N15D5] | 0.0 | 0.0
14 | CCCCCCCCCCCCCCCCSc1nc(NCCN2CCOCC2)nc(SCCCCCCCCCCCC)n1 [Compound S12S16D2] | 0.0 | 0.0
15 | CCCCCCCCCCCCCCCCSc1nc(NCC2CCN(C)CC2)nc(SCCCCCCCCCCCCCCCC)n1 [Compound S16S16D10] | 2.7 | 0.1
16 | CCCCCCCCCCCNc1nc(NCCCCCCCCCCC)nc(NCCN(CC)CC)n1 [Compound N11N11D7] | 5.5 | 0.6
17 | CCCCCCCCCCCCSc1nc(NCCN2CCOCC2)nc(SCCCCCCCCCCCC)n1 [Compound S12S12D2] | 0.0 | 0.1
18 | CCCCCCCCCNc1nc(NCCCCCC)nc(NCCCN2CCOCC2)n1 [Compound N6N9D8] | 0.0 | 0.0
19 | CCCCCCCCNc1nc(NCCCCCC)nc(NCCCN2CCOCC2)n1 [Compound N6N8D8] | 0.0 | 0.0
20 | CCCCCCCCCCCCCCSc1nc(NCCN2CCCC2)nc(SCCCCCCCCCCCC)n1 [Compound S12S14D3] | 6.3 | 6.5
21 | CCCCCCCCCCCCCCSc1nc(NCCN(CC)CC)nc(SCCCCCCCCCCCCCC)n1 [Compound S14S14D7] | 2.8 | 2.3
22 | CCCCCCCCCCCNc1nc(NCCCCCCCC)nc(NCC2CCN(C)CC2)n1 [Compound N8N11D10] | 0.2 | 0.3
23 | CCCCCCCCCCCCCCCCCCNc1nc(NCCCCCCCCCCC)nc(NCC2CCN(C)CC2)n1 [Compound N11N18D10] | 1.6 | 0.2
24 | CCCCCCCCCCCNc1nc(NCCCCCCCCC)nc(NCCN2CCCCC2)n1 [Compound N9N11D4] | 0.0 | 0.0

Row | Structure (SMILES) | Absolute mRNA transfection efficiency in HEK293 cells [1] [%] | Absolute DNA transfection efficiency in HEK293 cells [2] [%]
25 | CCCCCCCCCCCCCCCCCCNc1nc(NCCCCCCC)nc(NCCCN2CCOCC2)n1 [Compound N7N18D8] | 0.2 | 0.2
26 | CCCCCCCCCCCCCCCCCCSc1nc(NCCN2CCN(C)CC2)nc(SCCCCCCCCCCCCCC)n1 [Compound S14S18D5] | 1.0 | 0.2
27 | CCCCCCCCCCCCCNc1nc(NCCCCCCCCCCCCC)nc(NCCN2CCOCC2)n1 [Compound N13N13D2] | 0.9 | 0.0
28 | CCCCCCCCCCCCN(CCCCCCCCCCCC)c1nc(NCCCCCCCCC)nc(NCCCN(C)C)n1 [N9^2N12D6] | 0.8 | 0.3
29 | CCCCCCCCCCSc1nc(NCCN(C)C)nc(SCCCCCCCCC)n1 [Compound S9S10D1] | 5.0 | 8.6
30 | CCCCCCCCCCCCCNc1nc(NCCCCCCCCCCC)nc(NCCCN(C)C)n1 [Compound N11N13D6] | 0.2 | 0.8
31 | CCCCCCCNc1nc(NCCCCCC)nc(NCC2CCN(C)CC2)n1 [Compound N6N7D10] | 0.0 | 0.0
32 | CCCCCCCCCCCCNc1nc(NCCCCCCC)nc(NCCCN2CCN(C)CC2)n1 [Compound N7N12D9] | 0.0 | 0.1
33 | CCCCCCCCCCCCSc1nc(NCCN2CCCCC2)nc(SCCCCCCCCCC)n1 [Compound S10S12D4] | 3.4 | 12.0
34 | CCCCCCCCCCCCCCCCSc1nc(NCCN(C)C)nc(SCCCCCCCCCCC)n1 [Compound S11S16D1] | 2.4 | 0.5
35 | CCCCCCCCCCCCCCCCCCSc1nc(NCCCN2CCN(C)CC2)nc(SCCCCCCCCCCCCCCCCCC)n1 [Compound S18S18D9] | 0.1 | 0.9
36 | CCCCCCCCCNc1nc(NCCCCCCCCC)nc(NCCN2CCCCC2)n1 [Compound N9N9D4] | 0.6 | 0.0
37 | CCCCCCCCCNc1nc(NCCCCCCCC)nc(NCCN(CC)CC)n1 [Compound N8N9D7] | 0.0 | 0.0
38 | CCCCCCCCNc1nc(NCCCCCCCC)nc(NCCN(C)C)n1 [Compound N8N8D1] | 0.0 | 2.3
39 | CCCCCCCCCCCNc1nc(NCCCCCCCC)nc(NCCN(C)C)n1 [Compound N8N11D1] | 0.0 | 0.4
40 | CCCCCCCCCCCCCCCCCCNc1nc(NCCCCCCCCCCCCC)nc(NCCN(CC)CC)n1 [Compound N13N18D7] | 1.3 | 3.7
41 | CCCCCCCCCCCCCCCCCCNc1nc(NCCCCCCCCCCCCCCCC)nc(NCCN2CCCCC2)n1 [Compound N16N18D4] | 1.8 | 0.6
42 | CCCCCCCCCCCCNc1nc(NCCCN(C)C)nc(N(CCCCCCCCCCCC)CCCCCCCCCCCC)n1 [N12^2N12D6] | 1.2 | 3.6
43 | CCCCCCCCCCCNc1nc(NCCCCCCCC)nc(NCCN2CCCCC2)n1 [Compound N8N11D4] | 0.2 | 0.2
44 | CCCCCCCCCCCCCCCCCCSc1nc(NCCN(C)C)nc(SCCCCCCCCC)n1 [Compound S9S18D1] | 2.7 | 4.9
45 | CCCCCCCCCCCCCCCCCCSc1nc(NCCN(C)C)nc(SCCCCCCCCCCCCCCC)n1 [Compound S15S18D1] | 0.0 | 0.0
46 | CCCCCCCCCCCCSc1nc(NCCN(CC)CC)nc(SCCCCCCCCCCC)n1 [Compound S11S12D7] | 0.4 | 3.1
47 | CCCCCCCCCCCCCCCCCCSc1nc(NCCCN2CCN(C)CC2)nc(SCCCCCCCCCCCCCCC)n1 [Compound S15S18D9] | 0.0 | 0.3
48 | CCCCCCCCCCCCCCCNc1nc(NCCCCCCCCCCCCCCC)nc(NCCN(C)C)n1 [Compound N15N15D1] | 0.0 | 2.3
